Laboratory results reported in US20050089571A1, “Pharmaceutical formulation for the active ingredient budesonide” (ROEHM GMBH & CO.KG, priority 2002, published 2005).

Assay: Release test for budesonide, USP XXIII <711> Dissolution, apparatus 2 (paddle), 100 revolutions/min
Format: physicochemical
Protocol: The release test for budesonide is carried out in accordance with USP XXIII monograph <711> “Dissolution” with apparatus 2 (paddle) with 100 revolutions/min in phosphate buffer of pH 7.5 according to the monograph “Intestinal Fluid, Simulated, TS” without addition of pepsin or in purified water with the paddle at 100 revolutions/min with 500 ml of dissolving medium. 400 mg of sample were weighed for each determination. Detection took place by means of HPLC with a PP 18 column, 10 cm (Phenomenex) and UV detection at 246 nm. Equipment: pump L 7000 100 (from Merck-Hitachi, Darmstadt, Germany), autosampler L 7000 200 (from Merck-Hitachi, Darmstadt, Germany) UV/VIS detector L 4250 (from Merck-Hitachi, Darmstadt, Germany). The volume injected was 100 μl, and the flow rate was 1 ml/min. The retention times averaged 2.5 min. At the end of the test, the pellets were homogenized with an Ultra Turrax for 10 min. The content was used as 100% value in the calculation. 3 to 6 tests were carried out for each medium.
The pellets release the active ingredient under the indicated conditions in vitro as described below. At the end of the test, the pellets were homogenized using an Ultra Turrax for 10 min, and the budesonide concentration in the solution was again determined. The latter measurement was used as 100% value (theoretically possible budesonide content in the solution) in the calculation.

## CCCC1O[C@@H]2C[C@H]3[C@@H]4CCC5=CC(=O)C=C[C@]5(C)[C@H]4[C@@H](O)C[C@]3(C)[C@]2(C(=O)CO)O1 (stereo partly shown) [Example 1, budesonide]
Time 0 min
  Release in purified water and phosphate buffer of pH 7.5, Mean: 0.0 % of theory
Time 60 min
  Release in purified water and phosphate buffer of pH 7.5, Mean: ca. 3.7 % of theory
Time 120 min
  Release in purified water and phosphate buffer of pH 7.5, Mean: ca. 5.4 % of theory
Time 180 min
  Release in purified water and phosphate buffer of pH 7.5, Mean: ca. 7.1 % of theory
